One assay relates to H2P. Kind of assay: AlamarBlue cell viability assay, H2P. The note with it: Homo sapiens, Hepatocellular. The format is cell-based. As to the method: (§1) The human immortalized mammary epithelial cell lines, MCF10A, and MCF12A; and immortalized hepatocellular epithelial cell line, LO2 were obtained from the American Type Culture Collection (ATCC, Rockville, Md.) and were cultured as per ATCC propagation instructions. MC cell lines, MCF7, T47D, BT474, BT20, MDA-MB-361, MDA-MB-436, MDA-MB-468, and MDA-MB-231; endometrial carcinoma cell lines, Ishikawa, ECC1, RL95-2 and AN3; hepatocellular carcinoma cell lines, Hep3B, H2P, and H2M; colon carcinoma cell lines, DLD-1, and Caco-2; and prostate carcinoma cell lines, PC3, LNCaP, and DU145 were obtained from the American Type Culture Collection (ATCC, Rockville, Md.). Pancreatic carcinoma cell lines, AsPC-1 and BxPC-3; Lung carcinoma cell lines, HCC-827, NCI-H1975, HCC-4006, PC-14, and NCI-H1299; and Thyroid carcinoma cell lines HTH83, CAL62, T238, and OGK-M were obtained from Prof. H. Phillip Koeffler's laboratory at The Cancer Science Institute of Singapore, National University of Singapore (NUS). Gastric carcinoma cell lines, AGS, MKN-28, MKN-45, and A2-528 were obtained from Prof. […]
(§2) In table 9 IC50 values of compound 43 compound library in several cancer cell lines are tabulated, using an AlamarBlue® cell viability assay as previously described in Pandey V et al., Breast Cancer Res. 2014; 16(5):429. Statistical analysis was assessed by using GraphPad Prism5. […]

The test system of the next assay is T238. Kind of assay: AlamarBlue cell viability assay, T238. The format is cell-based. The conditions noted are these: Homo sapiens, Thyroid. As to the method: as §1, §2
The next assay concerns PC3. Kind of assay: AlamarBlue cell viability assay, PC3. The conditions noted are these: Homo sapiens, PC-3, Prostate. The format is cell-based. The protocol:
as §1, §2
(In general: Resazurin is reduced to fluorescent resorufin, in cell work by metabolically active cells.)

A further assay relates to MCF-7. The assay is described as follows: AlamarBlue cell viability assay, MCF7. It counts as cell-based, human. The source says:
(§3) (A) Inhibitory concentration 50% (IC50) values for compound 43 in the MC cell lines are tabulated, using an AlamarBlue™ cell viability assay as previously described in Pandey V et al., Breast Cancer Res. 2014; 16(5):429. (B) Measured dose-dependent manner effect of compound 43 on the viability of MC cells (left-side, TFF3-high and right, TFF3-low) using AlamarBlue™ viability assay as previously described (ibid). (C) Apoptotic cell death of mammary carcinoma cell lines measured after treatment with 10 μM compound 43 using flow cytometry analysis at 24 hour as described previously in Keerthy H K et al., PloS one. 2014; 9(9):e107118. Annexin V-FITC staining is indicated on the X-axis and PI staining on the Y-axis. […] Acquisition of Annexin V and PI data were represented as percentage (%) in each quadrant. Note: CM, conditioned media; MCF10A and MCF12A, non-transformed immortalized-mammary epithelial cell line. Points are mean of triplicate experiments; bars, ±SD. Statistical significance was assessed by using an unpaired two-tailed Student's t test (P<0.05 was considered as significant) using GraphPad Prism5. Columns are mean of triplicate experiments; bars, ±SD. **P<0.001, *P<0.05.
The human immortalized mammary epithelial cell lines, MCF10A, and MCF12A; and immortalized hepatocellular epithelial cell line, LO2 were obtained from the American Type Culture Collection (ATCC, Rockville, Md.) and were cultured as per ATCC propagation instructions. MC cell lines, MCF7, T47D, BT474, BT20, MDA-MB-361, MDA-MB-436, MDA-MB-468, and MDA-MB-231; endometrial carcinoma cell lines, Ishikawa, ECC1, RL95-2 and AN3; hepatocellular carcinoma cell lines, Hep3B, H2P, and H2M; colon carcinoma cell lines, DLD-1, and Caco-2; and prostate carcinoma cell lines, PC3, LNCaP, and DU145 were obtained from the American Type Culture Collection (ATCC, Rockville, Md.). Pancreatic carcinoma cell lines, AsPC-1 and BxPC-3; Lung carcinoma cell lines, HCC-827, NCI-H1975, HCC-4006, PC-14, and NCI-H1299; and Thyroid carcinoma cell lines HTH83, CAL62, T238, and OGK-M were obtained from Prof. H. Phillip Koeffler's laboratory at The Cancer Science Institute of Singapore, National University of Singapore (NUS). Gastric carcinoma cell lines, AGS, MKN-28, MKN-45, and A2-528 were obtained from Prof. Yoshiaki Ito's laboratory at The Cancer Science Institute of Singapore, NUS. All cell lines were cultured as per ATCC propagation instructions.
The above synthesised compounds were initially evaluated against a range of carcinoma cells using an AlamarBlue™ cell viability assay (using the protocol discussed above). The tested compounds were generally efficacious at reducing the viability of various carcinoma cells compared to vehicle (DMSO) treated cells. Table 8 provides selected IC50 data for certain of the compounds synthesised herein against MCF-7.
In table 9 IC50 values of compound 43 compound library in several cancer cell lines are tabulated, using an AlamarBlue® cell viability assay as previously described in Pandey V et al., Breast Cancer Res. 2014; 16(5):429. Statistical analysis was assessed by using GraphPad Prism5. Note: NV, no value.

A further assay has as its system MKN-28. Kind of assay: AlamarBlue cell viability assay, MKN-28. The note with it: Homo sapiens, Gastric. It counts as cell-based. As to the method: as §1, §2
In the next assay the test system is Caco-2. Kind of assay: AlamarBlue cell viability assay, Caco-2. The note with it: Homo sapiens, Colon. It counts as cell-based. As to the method:
as §1, §2

The next assay concerns BxPC-3. Kind of assay: AlamarBlue cell viability assay, BxPC-3. It counts as cell-based. The conditions noted are these: Homo sapiens, Pancreatic. The protocol:
as §1, §2

The subject of a further assay is Hep3B. The assay is described as follows: AlamarBlue cell viability assay, Hep3B. It counts as cell-based. The note with it: Homo sapiens, Hepatocellular. The protocol: as §1, §2
The next assay deals with HTH83. The assay is described as follows: AlamarBlue cell viability assay, HTH83. It counts as cell-based. The conditions noted are these: Homo sapiens, Thyroid. As to the method:
as §1, §2

Another assay has as its system ECC1. The assay is described as follows: AlamarBlue cell viability assay, ECC1. The format is cell-based. The note with it: Homo sapiens, ECC-1, Endometrial. As to the method:
as §1, §2

Another assay has as its system H2M. The assay is described as follows: AlamarBlue cell viability assay, H2M. The format is cell-based. The note with it: Homo sapiens, Hepatocellular. The protocol:
as §1, §2

The subject of a further assay is BT474. Kind of assay: AlamarBlue cell viability assay, BT474. It counts as cell-based. The note with it: Homo sapiens, BT-474, Mammary.
Excerpt: as §3, with “Columns are mean of triplicate experiments; bars, ±SD. **P<0.001, *P<0.05.” left out
as §2

In the next assay the test system is MKN-45. The assay is described as follows: AlamarBlue cell viability assay, MKN-45. It counts as cell-based. The conditions noted are these: Homo sapiens, Gastric. The protocol: as §1, §2

SMILES strings stand for the structures. pIC50: −log10 of the molar value.

The term pIC50 denotes the negative decadic logarithm of the IC50, by convention in mol/L. High values mean a low IC50, low ones a high IC50.

For `Cc1cc(-c2ccc(C3C(C#N)=C(N)Oc4c3c(=O)oc3ccccc43)cc2)cnc1F` (stereo not drawn) [Compound 43, 2-Amino-4-(4-(6-fluoro-5-methylpyridin-3-yl)phenyl)-5-oxo-4H,5H-pyrano[3,2-c]chromene-3-carbonitrile], the pIC50 in the assay with H2P is 4.95; in the assay on T238 it was 3.73; with PC3, 6.17; with MCF-7 (Homo sapiens, MCF7, MCF-7, AlamarBlue cell viability (Table 8)), 5.49; with MCF-7 (Homo sapiens, MCF7, Mammary, MCF7), 5.49; in the assay with MCF-7 (MCF-7, AlamarBlue cell viability (Table 8)) it was 5.35. In addition, the negative-log IC50 (pIC50) with MKN-28 was 4.07; with Caco-2 it was 5.55; in the assay on BxPC-3 it was 5.59; in the assay with Hep3B it was 5.07; in the assay with HTH83 it was 6.25; in the assay on ECC1 it was 5.33. In addition, the values for the pIC50 in the assay with H2M, in the assay with BT474 and with MKN-45 were 5.10, 5.57 and 5.17, respectively.
